Data: ChEMBL document CHEMBL1158003, “Discorhabdin P, a new enzyme inhibitor from a deep-water Caribbean sponge of the genus Batzella” (J Nat Prod, 1999)
In brackets after ≈: the same amount, converted by molar mass. One block for each compound: values may come before it. Activity calls are given as the source filed them. No cut-off for these calls is given here.

Tests used:
Caspase-3 (Homo sapiens) [1] = target: T1, Caspase-3 (Homo sapiens) (UniProt P42574); assay: Inhibition of CPP32 peptidase activity at 50 nM
T1 sequence (whole entry): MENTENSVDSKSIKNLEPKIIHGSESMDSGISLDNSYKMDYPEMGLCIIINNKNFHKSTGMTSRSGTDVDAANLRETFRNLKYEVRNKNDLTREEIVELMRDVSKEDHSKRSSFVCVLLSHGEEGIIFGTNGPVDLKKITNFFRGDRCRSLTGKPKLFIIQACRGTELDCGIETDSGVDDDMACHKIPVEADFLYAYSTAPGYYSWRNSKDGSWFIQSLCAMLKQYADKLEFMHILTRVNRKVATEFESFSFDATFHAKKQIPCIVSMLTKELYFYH

Bos taurus = species: Bos taurus; assay: Inhibition of bovine brain calcineurin phosphatase activity at 5 ug/mL
Caspase-3 (Homo sapiens) [2] = target: T1, Caspase-3 (Homo sapiens); assay: Inhibition of CPP32 peptidase activity at 5 ug/mL
[3] = Inhibition of bovine brain calcineurin phosphatase activity; design: species or system Bos taurus
P388 = assay: Cytotoxicity against mouse P388 cells; type: functional, cell-based
A549 = assay: Cytotoxicity against human A549 cells; type: functional, cell-based

- inhibition (Caspase-3 (Homo sapiens) [1]): 90%
SMILES: CC(C)[C@H](NC(=O)[C@H](CCC(=O)O)NC(=O)[C@@H](N)CC(=O)O)C(=O)N[C@H](C=O)CC(=O)O

- Activity (Bos taurus): inactive
- Activity (Caspase-3 (Homo sapiens) [2]): inactive
SMILES: O=C1C(Br)=CC2(C=C1Br)CCNC1=C2C2=NCCc3c[nH]c(c32)C1=O

SMILES: Cn1cc2c3c1C(=O)C1=C(C3=NCC2)C2(C=C(Br)C(=O)C(Br)=C2)CCN1 [DISCORHABDIN]
- IC50 [3]: 0.55 µg/mL (≈ 1.15 µM)
- IC50 (P388): 0.025 µg/mL (≈ 0.0524 µM)
- IC50 (A549): 0.41 µg/mL (≈ 0.859 µM)
